Experimental data: US11384078B2, “5,6-fused-bicyclic compounds and compositions for the treatment of parasitic diseases” (NOVARTIS AG, priority 2017, dated 2022)
Like-named read-outs stand apart in the source and are kept apart here.

Legend:
Format in all cases: cell-based
[1] = test system: Trypanosoma brucei brucei (Lister 427) strain; experiment: Assay for growth inhibition against Trypanosoma brucei brucei (Cell TiterGlo ATP luminescence); conditions: T. brucei brucei (Lister 427), read-out: T. Brucei (HAT) EC50
In short: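 Growth read-out is cellular ATP by CellTiter-Glo luminescence, measured 30 min after reagent addition, following 2-day incubation at 37 °C in CO2. Parasites (10,000/mL, HMI-9 plus 10% FBS and 10% serum plus) faced 10 threefold dilutions in duplicate; IC50 taken as 50% growth inhibition versus untreated.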

[2] = test system: Trypanosoma cruzi amastigotes cultured in 3T3 fibroblast cells; experiment: Assay for growth inhibition of kinetoplastid parasite Trypanosoma cruzi (beta-galactosidase Tulahuen strain, CPRG readout); conditions: T. cruzi amastigotes in 3T3 fibroblast cells, read-out: Buckner infectious T. cruzi EC50
In short: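 3T3 fibroblasts (1,000 cells/well) plated overnight, treated with compound in DMSO, then infected with 10,000 Lac-Z-expressing Tulahuen trypomastigotes. After 6 days, 0.6 mM CPRG with 0.6% NP-40 added for 2 h at room temperature; absorbance gives relative intracellular amastigote numbers. Benznidazole and nifurtimox serve as positive controls.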

[3] = test system: Leishmania donovani axenic amastigote; experiment: In vitro assay for growth inhibition of Leishmania donovani axenic amastigote (Cell TiterGlo luminescence); conditions: L. donovani axenic amastigotes in vitro, read-out: L. donovani amastigotes EC50
In short: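 Compound-treated wells received 9600 axenic amastigotes in RPMI 1640-based medium at pH 5.5 (37 °C, 5% CO2). Growth measured as ATP luminescence (CellTiter-Glo) after 2-day incubation; DMSO and reference compounds served as controls.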

[4] = test system: L. donovani HU3 strain in mouse peritoneal macrophages; experiment: Assay for inhibition of parasitemia of Leishmania donovani in mouse macrophages (SYBR Green nuclei count, high-content imaging); conditions: read-out: L. donovani in Mouse Macrophages EC50
Excerpt: Assay for Inhibition of Parasitemia of Leishmania donovani in Mouse Macrophages
The assay measures the increase in the parasite number in the assayed plate well using a DNA intercalating dye, SYBR Green I® dye (INVITROGEN) to stain Leishmania cell nuclei. L. donovani HU3 strain is propagated by infecting BALB/c mice through tail vein injection with 10^7 Leishmania parasites. Infected mice are allowed to develop infection during 9-11 weeks post-infection. During this time, the parasites accumulate in the infected mouse spleens to large numbers, and the infected mice serve as the source of parasites for the in vitro measurement of compound efficacies. To assay a compound for anti-leishmanial activity, peritoneal macrophages isolated from non-infected BALB/c mice are seeded into 384-well plates at density 2×10^4 macrophages per well in […] of medium (RPM11640, 10% fetal serum albumin, 10 mM HEPES, 1 mM sodium pyruvate, 1% Pen/Strep). Subsequently, the seeded plates are placed into an incubator set to maintain 37° C. temperature and atmosphere with 5% CO2.
The next day, Leishmania parasites are isolated from the spleens of mice infected for 9-11 weeks and 4×10^5 isolated parasites in […] of the above media are added to each plate well. Plates are then returned into incubators and infection is allowed to proceed for 24 hours. After the infection of macrophages is completed, […] of compounds of the invention in the above medium, which also contains 5% DMSO, are added to plate wells containing infected macrophages. At the same time control compounds (miltefosine and amphotericin B) and DMSO are added to plates to serve as the positive and negative controls, respectively. After the compound addition, the plates are returned into incubator and cells infected with parasites are cultured for 5 days. At the end of cultivation, […] of 8% paraformaldehyde is added to plate wells and incubated for 15 min at room temperature. Following the incubation, the paraformaldehyde from plate wells is aspirated, and […] of PBS containing 0.2% Triton X-100 is added to wells. After 15 min incubation, the solution is aspirated from wells again, and replaced with Sybr® Green Dye solution in PBS (1:125,000 dilution). Infected cells are imaged with Evotec Opera high-content microscope, and the number of parasites in well is determined by counting parasite nuclei visualized by staining with Sybr® Green dye.

[5] = Leishmania donovani, Peritoneal macrophage, L. donovani in mouse peritoneal macrophages
[6] = L. donovani in mouse peritoneal macrophages

| SMILES | EC50 ([1]; Trypanosoma brucei) | EC50 ([2]; Trypanosoma cruzi, Fibroblast) | EC50 ([3]; Leishmania donovani) | EC50 [4, 5] | EC50 [1] | EC50 [4, 6] | EC50 [2] | EC50 [3] | EC50 ([4]; Leishmania donovani, Peritoneal macrophage) |
| --- | --- | --- | --- | --- | --- | --- | --- | --- | --- |
| O=C(Nc1ccc(F)c(-n2cc3cc(N4CC5(CC5)C4)cnc3n2)c1)[C@H]1C[C@@H]1F (racemic) [Compound 272, (1R,2S)-N-[3-(5-{5-azaspiro[2.3]hexan-5-yl}-2H-pyrazolo[3,4-b]pyridin-2-yl]-4-fluorophenyl}-2-fluorocyclopropane-1-carboxamide] | 351 nM | 114 nM | 131 nM | 85 nM |  |  |  |  |  |
| O=C(Nc1ccc(F)c(-n2cc3cc(-c4ccccn4)cnc3n2)c1)[C@@H]1C[C@@H]1F (racemic) [Compound 349, (1S,2S)-2-fluoro-N-{4-fluoro-3-[5-(pyridin-2-yl)-2H-pyrazolo[3,4-b]pyridin-2-yl]phenyl}cyclopropane-1-carboxamide] | 43 nM | 85 nM | 96 nM | 102 nM |  |  |  |  |  |
| O=C(Nc1ccc(F)c(-n2cc3cc(-c4ccccn4)cnc3n2)c1)[C@@H]1C[C@H]1F (single isomer, unassigned) [Compound 256] | 27 nM | 5 nM | 11 nM | 38 nM |  |  |  |  |  |
| O=C(Nc1ccc(F)c(-n2cc3cc(N4CC(F)(F)C4)cnc3n2)c1)[C@@H]1C[C@H]1F (single isomer, unassigned) [Compound 268, (1 S,2R)—N-(3-(5-(3,3-difluoroazetidin-1-yl)-2H-pyrazolo[3,4-b]pyridin-2-yl)-4-fluorophenyl)-2-fluorocyclopropane-1-carboxamide or (1R,2S)—N-(3-(5-(3,3-difluoroazetidin-1-yl)-2H-pyrazolo[3,4-b]pyridin-2-yl)-4-fluorophenyl)-2-fluorocyclopropane-1-carboxamide] |  | 82 nM | 84 nM |  | 116 nM | 273 nM |  |  |  |
| O=C(Nc1ccc(F)c(-n2cc3cc(-c4ccccn4)cnc3n2)c1)[C@H]1C[C@@H]1F (single isomer, unassigned) [Compound 269, (1 S,2R)-2-fluoro-N-(4-fluoro-3-(5-(pyridin-2-yl)-2H-pyrazolo[3,4-b]pyridin-2-yl)phenyl)cyclopropane-1-carboxamide or (1R,2S)-2-fluoro-N-(4-fluoro-3-(5-(pyridin-2-yl)-2H-pyrazolo[3,4-b]pyridin-2-yl)phenyl)cyclopropane-1-carboxamide] |  | 9 nM | 19 nM |  | 20 nM | 32 nM |  |  |  |
| O=C(Nc1ccc(F)c(-n2cc3cc(N4CC(F)(F)C4)cnc3n2)c1)[C@@H]1C[C@H]1F (single isomer, unassigned) [Compound 271, (1 S,2R)—N-(3-(5-(3,3-difluoroazetidin-1-yl)-2H-pyrazolo[3,4-b]pyridin-2-yl)-4-fluorophenyl)-2-fluorocyclopropane-1-carboxamide or (1R,2S)—N-(3-(5-(3,3-difluoroazetidin-1-yl)-2H-pyrazolo[3,4-b]pyridin-2-yl)-4-fluorophenyl)-2-fluorocyclopropane-1-carboxamide] |  |  |  |  | 388 nM | 3 nM | 144 nM | 120 nM |  |
| O=C(Nc1ccc(F)c(-n2cc3cc(-c4ccccn4)cnc3n2)c1)[C@H]1C[C@@H]1F (single isomer, unassigned) [Compound 273, (1 S,2R)-2-fluoro-N-(4-fluoro-3-(5-(pyridin-2-yl)-2H-pyrazolo[3,4-b]pyridin-2-yl)phenyl)cyclopropane-1-carboxamide or (1R,2S)-2-fluoro-N-(4-fluoro-3-(5-(pyridin-2-yl)-2H-pyrazolo[3,4-b]pyridin-2-yl)phenyl)cyclopropane-1-carboxamide] |  |  |  |  | 45 nM | 6 nM | 17 nM | 27 nM |  |
| CCC(C)c1cnc2nn(-c3cc(NC(=O)N4CC(F)(F)C4)ccc3F)cc2c1 (centres unmarked) [Compound 36, N-{3-[5-(butan-2-yl)-2H-pyrazolo[3,4-b]pyridin-2-yl]-4-fluorophenyl}-3,3-difluoroazetidine-1-carboxamide] |  |  | 210 nM | 250 nM |  |  |  |  |  |
| O=C(Nc1ccc(F)c(-n2cc3cc(C4CCCCC4)cnc3n2)c1)N1CC[C@@H](F)C1 [Compound 44, (3R)-N-(3-{5-cyclohexyl-2H-pyrazolo[3,4-b]pyridin-2-yl}-4-fluorophenyl)-3-fluoropyrrolidine-1-carboxamide] |  | 22 nM | 29 nM | 32 nM |  |  |  |  |  |
| CC(C)(C)c1cnc2nn(-c3cc(NC(=O)N4CC[C@@H](F)C4)ccc3F)cc2c1 [Compound 47, (3R)-N-(3-{5-tert-butyl-2H-pyrazolo[3,4-b]pyridin-2-yl}-4-fluorophenyl)-3-fluoropyrrolidine-1-carboxamide] |  | 2.8 nM | 23 nM | 27 nM |  |  |  |  |  |
| O=C(Nc1ccc(F)c(-n2cc3cc(C4CC4)cnc3n2)c1)c1ccco1 [Compound 55, N-(3-{5-cyclopropyl-2H-pyrazolo[3,4-b]pyridin-2-yl}-4-fluorophenyl)furan-2-carboxamide] |  | 6.3 nM | 57 nM | 35 nM |  |  |  |  |  |
| O=C(Nc1ccc(F)c(-n2cc3cc(C4CCCC4)cnc3n2)c1)c1ccco1 [Compound 56, N-(3-{5-cyclopentyl-2H-pyrazolo[3,4-b]pyridin-2-yl}-4-fluorophenyl)furan-2-carboxamide] |  |  | 240 nM | 550 nM |  |  |  |  |  |
| CC(C)CCc1cnc2nn(-c3cc(NC(=O)c4ccco4)ccc3F)cc2c1 [Compound 63, N-{4-fluoro-3-[5-(3-methylbutyl)-2H-pyrazolo[3,4-b]pyridin-2-yl]phenyl}furan-2-carboxamide] |  | 14 nM | 89 nM | 90 nM |  |  |  |  |  |
| CN(C)C(=O)Nc1ccc(F)c(-n2cc3cc(N(C)C)cnc3n2)c1 [Compound 143, 1-{3-[5-(dimethylamino)-2H-pyrazolo[3,4-b]pyridin-2-yl]-4-fluorophenyl}-3,3-dimethylurea] | < 23 nM |  | 150 nM | 110 nM |  |  |  |  |  |
| O=C(Nc1ccc(F)c(-n2cc3cc(CC(F)(F)F)cnc3n2)c1)c1ccco1 [Compound 176, N-{4-fluoro-3-[5-(2,2,2-trifluoroethyl)-2H-pyrazolo[3,4-b]pyridin-2-yl]phenyl}furan-2-carboxamide] |  | 9.5 nM | 71 nM | 69 nM |  |  |  |  |  |
| [2H]C([2H])([2H])N(c1cnc2nn(-c3cc(NC(=O)N4CC(F)C4)ccc3F)cc2c1)C([2H])([2H])[2H] [Compound 314, N-(3-[5-[bis(^2H3)methylamino]-2H-pyrazolo[3,4-b]pyridin-2-yl]-4-fluorophenyl)-3-fluoroazetidine-1-carboxamide] |  | 5 nM | 242 nM | 6 nM |  |  |  |  |  |
| O=C(Nc1ccc(F)c(-n2cc3cc(N4CC5(CC5)C4)cnc3n2)c1)N1CCCC1 [Compound 337, N-[3-(5-{5-azaspiro[2.3]hexan-5-yl}-2H-pyrazolo[3,4-b]pyridin-2-yl)-4-fluorophenyl]pyrrolidine-1-carboxamide] | 7 nM | 4 nM |  | 13 nM |  |  |  |  |  |
| Cc1nc(C)c(C(=O)Nc2ccc(F)c(-n3cc4cc(-c5ccccc5)cnc4n3)c2)o1 [Compound 352, N-(4-fluoro-3-(5-phenyl-2H-pyrazolo[3,4-b]pyridin-2-yl)phenyl)-2,4-dimethyloxazole-5-carboxamide] | 39 nM |  | 17 nM | 31 nM |  |  |  |  |  |
| O=C(Nc1ccc(F)c(-n2cc3cc(-c4ccccc4)cnc3n2)c1)N1CC(F)(F)C1 [Compound 353, 3,3-difluoro-N-(4-fluoro-3-(5-phenyl-2H-pyrazolo[3,4-b]pyridin-2-yl)phenyl)azetidine-1-carboxamide] | 13 nM |  | 5 nM |  |  |  |  |  | 4 nM |
